Consider 1 compound from patent publication US20200009130A1, “OCULAR DISTRIBUTION AND PHARMACOKINETICS OF LIFITEGRAST FORMULATIONS” (SARcode Bioscience Inc., priority 2016, published 2020).

A short description of one data set: in vivo. On the set-up: species or system New Zealand Red/White F1 Cross rabbits. The conditions noted are these: female, New Zealand Red/White F1 Cross, rabbit. Here is the method: In this experiment, female pigmented rabbits were assigned to receive one of two formulations of lifitegrast (#1 and #2) for 5 consecutive days. Each treatment group consisted of 25 rabbits. Animals received a single topical ocular dose of lifitegrast in each eye b.i.d.
(except on study day 5), approximately 12 hours apart (±1 hour), at a target dose level of 1.75 mg/eye/dose (35 μL/eye/dose). On study day 5, animals were dosed in the morning only. Treatment groups 1 and 2 were dosed on separate days. The in-life portion of the study was conducted in May 2014. This study adhered to the ARVO Statement for the Use of Animals in Ophthalmic and Vision Research and all procedures in the study were in compliance with the Animal Welfare Act Regulations (9 CFR 3).
Fifty female New Zealand Red/White F1 Cross rabbits from Covance Research Products (Denver, Pa., USA) were used in the study. The animals were acclimated to study conditions for 13 days before dose administration. At dosing, the animals weighed 3177 to 4271 g and were at least 6 months of age. Animals were housed individually, in suspended stainless steel cages, with food and water ad libitum, and under a 12-hour light/12-hour darkness cycle throughout the study. Animals were not randomized, but were assigned to animal numbers based on overall health and the results of predose ophthalmic examinations. Ophthalmic examinations were performed by a board-certified veterinary ophthalmologist once at baseline (pre dose) using a Kowa hand-held slit-lamp biomicroscope and an indirect ophthalmoscope with a condensing lens to ensure the study animals were healthy and had no ocular findings pre-treatment.
Formulations for the study that would be representative of the clinical material (confirmed by analytical data) were prepared at Covance Laboratories Inc. In each formulation, lifitegrast was added to dose vehicle while stirring, and pH adjusted with hydrochloric acid (HCl) and/or sodium hydroxide (NaOH). The formulation was stirred until a clear solution was obtained, filtered with a 0.22 μm filter (Millipore® Millex-GV, 0.22 μm, Durapore® PVDF) and stored at approximately 5° C. Analysis of the formulations was performed by Almac Sciences, Souderton, Pa., USA, and concentrations were measured as 49.4 and 49.3 mg/mL for formulations #1 and #2, respectively.
Formulation #1: dose vehicle consisted of sterile water for injection, sodium chloride, sodium phosphate dibasic anhydrous, sodium bicarbonate, ethylenediaminetetraacetic acid (EDTA), and sodium thiosulfate pentahydrate, adjusted to a pH of 7.30 with HCl. After addition of lifitegrast (50 mg/mL), the pH was adjusted to 6.90. […]

For data set [1] the following is noted: literature; cited from earlier work.

The Cmax is the highest concentration seen after dosing. For orientation: Tmax means the time at which the peak concentration occurs. Broadly, the half-life is the time needed for the level to fall by half in the phase considered. Low values mean fast loss, high ones slow loss. With `CS(=O)(=O)c1cccc(C[C@H](NC(=O)c2c(Cl)cc3c(c2Cl)CCN(C(=O)c2ccc4ccoc4c2)C3)C(=O)O)c1` [lifitegrast, Lifitegrast], in “in vivo”, the Cmax is not above 36 ng/g and the Tmax was 15 to 60 min. In addition, the half-life in “in vivo” (plasma t1/2) is 51 min. The half-life in “in vivo” (t1/2) was approximately 120 min. Also, the “safety profile in clinical trials” value in data set [1] is listed as “generally well tolerated”.
